The values that follow come from patent US9180174B2, “Conjugates comprising mannan and myelin oligodentrocyte glycoprotein (MOG)” (priority 2008, dated 2015).

Ends that are not written are not given here.

In one assay the test system is EAE. Kind of assay: EAE in animal models (summary statements). The conditions noted are these: unconjugated peptide. Format: in vivo. The procedure:
(§1) Groups of female animals (age range 6-10 week old C57BL/6 or SJL/J mice and 12-15 week old Lewis rats) were immunized intra-dermally with 100 μl solution containing 30 μg peptide (MOG35-55) or 50 μg PLP139-151 peptide for mice and 30 μg MBP83-99 for Lewis rats) conjugated to 70 μg oxidized or reduced mannan diluted in bi-carbonate buffer, pH 9.0. As controls, age matched groups of animals were vaccinated with oxidized or reduced mannan alone, saline or 30-50 μg of peptide alone. Three consecutive vaccinations were performed spaced 15 days apart. Fifteen days after the last vaccination EAE was induced.

For assay [1], the system named is MOG35-55-EAE. Kind of assay: Prophylactic vaccination before MOG35-55-EAE induction, clinical score and body weight. Format: in vivo, C57BL/6 mice. The settings on record: for protection from MOG35-55-EAE development (clinical score): three vaccinations 15 days apart, EAE induced 15 days after the last, FIG. 1.
Assay [2] relates to splenocytes. Kind of assay: T cell priming and proliferation assay, [3H]-thymidine incorporation, ex vivo MOG35-55 recall. Format: cell-based, C57BL/6 mice. The conditions noted are these: day 25 post EAE induction, versus mannan alone or PBS; FIGS. 7 and 8. As to the method: Isolated splenocytes were cultured for 72 h in 96-well plates in RPMI 1640 (Invitrogen Life Technologies, Gaithersburg, Md.) containing 10% heat-inactivated FCS, 50 μM 2-ME, and increasing concentrations of MOG35-55 peptide. Cells were stimulated in triplicate at 2×10^6 cells/ml in round-bottom, 96-well plates (Costar). Cells were pulsed with 1 μCi/5×10^5 cells [^3H]-thymidine in triplicate (Amersham Radiochemicals) for the last 16 h of culture. [^3H]-thymidine incorporation was measured by liquid scintillation counting (Wallac, Turku, Finland). Results are expressed as the stimulation index (ratio between radioactivity counts of cells cultured in presence of peptide and cells cultured with media alone).

Assay [3] has as its system MOG35-55-EAE. Kind of assay: Histopathological analysis of spinal cord and brain after MOG35-55-EAE induction. Format: in vivo, C57BL/6 mice.
For assay [4], the system named is splenocytes. Kind of assay: Cytokines in splenocyte culture supernatants (cytometric bead array, IL-17 ELISA). The class given is cell-based, C57BL/6 mice. The settings on record: 10 μg/ml MOG35-55, day 25 post EAE induction; FIG. 9. The source says:
The mouse Th1/Th2 cytokine cytometric bead array kit (BD Biosciences) was used to measure cytokine levels in culture supernatants according to the manufacturer's instructions. The cytokines measured with this kit were: IL-2, IL-4, IL-5, IFN-γ and TNF-α. In addition a mouse IL-17 ELISA set (R&D Systems, Germany) was used to measure cytokine secretion from splenocyte cell culture supernatants according to manufacturer's instructions. The sensitivity of the assay for different cytokines was as follows: IL-2, IL-4 and IL-5=5.0 pg/ml; IFN-γ=2.5 pg/ml; TNF-α=6.3 pg/ml.
For orientation: In an ELISA, binding on a coated surface is turned into a signal by an enzyme label.

The next assay has as its system PLP139-151-EAE. Kind of assay: Prophylactic vaccination before PLP139-151-EAE induction, clinical score. The settings on record: FIG. 10; for clinical score (peak): 6-grade scale, 0.5 = weight loss. The class given is in vivo, SJL/J mice. As to the method: as §1
EAE was induced in SJL/J mice using a standard protocol. 150 μg of PLP139-151 was dissolved in PBS and emulsified in an equal volume of CFA (containing […] of heat killed Mycobacterium Tuberculosis HR37a, Sigma). On Day 0 (day of disease induction), one s.c injection was given by injecting 150 μg PLP139-151/200 μl per mouse in both of the flanks. Each mouse also received 400 ng pertussis toxin (Sigma, P2980) (i.p) dissolved in 200 μl PBS. On day 2, mice were received a booster of pertussis toxin (200 ng pertussis toxin dissolved in 200 μl PBS per mouse) Animals were daily evaluated for clinical signs of disease, starting from day 1 post immunisation, using a 6-grade clinical scale: 0, normal animal; 0.5, weight loss; 1, inability to elevate the tail above the horizontal level, tail weakness; 2, tail paralysis; 3, tail paralysis/hind limb paresis; 4, hind limb paralysis/forelimb weakness; 5, quadriplegia/moribund; 6, death from EAE. Moreover, animals were daily weighted throughout the entire experimental period.

[5] abbreviates: 24 days after EAE induction, FIG. 5.

As for “H-Glu-Asn-Pro-Val-Val-His-Phe-Phe-Lys-Asn-Ile-Val-Thr-Pro-Arg-Thr-Pro-OH (H-ENPVVHFFKNIVTPRTP-OH) [MBP83-99]”, the “induction of EAE by the linear peptide” value in the assay with EAE is “induce EAE”.
The same measure, in the same setting: under “H-His-Ser-Leu-Gly-Lys-Trp-Leu-Gly-His-Pro-Asp-Lys-Phe-OH (H-HSLGKWLGHPDKF-OH) [PLP139-151]” stands “induce EAE”.
Turning to “H-Met-Glu-Val-Gly-Trp-Tyr-Arg-Pro[Ser]-Pro-Phe-Ser-Arg-Val-Val-His-Leu-Tyr-Arg-Asn-Gly-Lys-OH [MOG35-55, reference compound]”, in the assay on MOG35-55-EAE [1] (after day 20, FIGS. 3 and 4), the “disease course after day 20 of disease progression” value is reported as “exacerbated”. Also, the “EAE compared to non vaccinated controls at initial stages of disease” value in the assay with MOG35-55-EAE [1] (initial stages, FIGS. 3 and 4) is “significantly lower”. Further, the “susceptibility to MOG-EAE after vaccination with peptide alone” value with MOG35-55-EAE [1] (three prior challenges with unconjugated peptide, FIGS. 3 and 4) is reported as “still susceptible to MOG-EAE”. Further, the “delay of EAE initiation” value in the assay on MOG35-55-EAE [1] (versus non-vaccinated controls, FIGS. 3 and 4) is on record as 3 days. For the same substance, the proliferation of splenocytes entry in the assay with splenocytes [2] is recorded as “did not show a reduction”. For the same substance, the “induction of EAE by the linear peptide” value in the assay with EAE was “induce EAE”.
Turning to “oxidized mannan-MOG35-55: MOG35-55 peptide with a [(Lys-Gly)5] bridge conjugated to oxidized mannan via Schiff base formation (MEVGWYRSPFSRVVHLYRNGK; also: (Lys-Gly)5 bridge, site not given here, conjugated to oxidized mannan via Schiff base; UniProt Q61885 63-83, looked up, fragment)”, in the assay with MOG35-55-EAE [3] (setting [5]), the “demyelinating lesions in the spinal cord” value was “no demyelinating lesions” and the “inflammatory infiltration in the spinal cord” value is given as “little inflammatory infiltration”. Besides, the “inflammatory and demyelination index, brain and spinal cord” value in the assay with MOG35-55-EAE [3] (individual mice, FIG. 6) is “marked reduction”. For the same substance, in the assay on MOG35-55-EAE [1] (FIG. 2), the “wasting symptoms (daily weight measurement)” value is “absence of wasting symptoms”. Further, the “protection from MOG35-55-EAE development (clinical score)” value (shortened to “protection … (clinical score)”) in the assay with MOG35-55-EAE [1] is “significant protection”. Moreover, in the assay with MOG35-55-EAE [1] (listed as MOG35-55 peptide conjugated to oxidized mannan), the “protection … (clinical score)” value is “greatest degree of protection”. Also, the proliferation of splenocytes result in the assay on splenocytes [2] is “Significant reduced proliferation”. Moreover, in the assay on splenocytes [4], the “amount of IL-17 secreted by MOG35-55 specific T cells” value was “reduction” and the “levels of Th1 cytokines (IFN-γ, TNF-α, IL-2)” value is “reduction”.
For “oxidized mannan-PLP139-151: PLP139-151 peptide with a [(Lys-Gly)5] bridge conjugated to oxidized mannan via Schiff base formation”, the “clinical score (peak)” value in the assay with PLP139-151-EAE turned out to be 0.5. Also, the “induction of / protection from PLP139-151-EAE” value with PLP139-151-EAE is on record as “did not induce EAE”; with PLP139-151-EAE (listed as PLP139-151-oxidized mannan), “completely protected”.
Turning to “reduced mannan-MOG35-55: MOG35-55 peptide with a [(Lys-Gly)5] bridge conjugated to mannan, reduced with sodium borohydride (MEVGWYRSPFSRVVHLYRNGK; also: (KG)5 bridge, site not given here, conjugated to mannan, reduced with sodium borohydride; UniProt Q61885 63-83, looked up, fragment)”, the “extent of lymphocyte infiltration and demyelination (overall protective effect)” value in the assay on MOG35-55-EAE [3] (setting [5]) is recorded as “Intermediate protective effects”. For the same substance, the “protection … (clinical score)” value in the assay with MOG35-55-EAE [1] is on record as “significant protection”. Moreover, the “protection … (clinical score)” value in the assay with MOG35-55-EAE [1] (listed as MOG35-55 peptide conjugated to reduced mannan) was “significant inhibition from disease manifestation”. Also, in the assay on splenocytes [2], the proliferation of splenocytes result was “Significant reduced proliferation”. Further, in the assay with splenocytes [4], the “amount of IL-17 secreted by MOG35-55 specific T cells” value is on record as “reduction” and the “levels of Th1 cytokines (IFN-γ, TNF-α, IL-2)” value is “reduction”.
Regarding “reduced mannan-PLP139-151: PLP139-151 peptide with a [(Lys-Gly)5] bridge conjugated to mannan, reduced with sodium borohydride”, in the assay on PLP139-151-EAE, the “clinical score (peak)” value was 0.5 and the “induction of / protection from PLP139-151-EAE” value was “did not induce EAE”.
